The results in this text go back to patent US4015974A, “Amido phosphorothiolates” (priority 1972, dated 1977).

The structures appear in SMILES notation. In brackets after ≈: the same amount, converted by molar mass.

Type in all cases: in vivo
Data set [1] deals with barnyard grass (Echinochloa crus-galli). In words: Pre-emergence application, herbicidal effect on barnyard grass (Table 1). More on the design: key: 0: not damaged; 5: completely killed. The note with it: 20 days after application, score 0-5. The method, boiled down:
(§1)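 Soil treatment after sowing, pre-emergence; wettable powder formulations diluted with water. Greenhouse, 20 d. Score 0 = no damage, 5 = complete kill.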

For data set [2], the system named is large crabgrass (Digitaria sanguinalis). Put plainly: Pre-emergence application, herbicidal effect on large crabgrass (Table 1). More on the design: key: 0: not damaged; 5: completely killed. The note with it: 20 days after application, score 0-5. The method, boiled down: as §1
The next data set concerns radish. In words: Pre-emergence application, herbicidal effect on radish (Table 1). The settings on record: 20 days after application, score 0-5. Also noted: key: 0: not damaged; 5: completely killed. In short, it runs like this: as §1
Data set [3] has as its system redroot pigweed (Amaranthus retroflexus). Put plainly: Pre-emergence application, herbicidal effect on redroot pigweed (Table 1). More on the design: key: 0: not damaged; 5: completely killed. The settings on record: 20 days after application, score 0-5. In short, it runs like this:
as §1

For data set [4], the system named is common purslane (Portulaca oleracea). In words: Pre-emergence application, herbicidal effect on common purslane (Table 1). The settings on record: 20 days after application, score 0-5. Also noted: key: 0: not damaged; 5: completely killed. In short, it runs like this: as §1
For data set [5], the system named is common lambsquarter (Chenopodium album). In words: Pre-emergence application, herbicidal effect on common lambsquarter (Table 1). Also noted: key: 0: not damaged; 5: completely killed. The note with it: 20 days after application, score 0-5. In short, it runs like this: as §1
In a further data set the test system is rice. Put plainly: Water application, phytotoxicity on rice (Table 2). More on the design: key: 0: no effect; 1: very slightly affected; 2: slightly affected; 3: moderately affected; 4: considerably affected; 5: completely killed. The note with it: 25 days, score 0-5. The method, boiled down: (§2)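 Paddy-soil pots flooded to paddy conditions; rice transplanted at 3-leaf stage, barnyard grass sown, broad-leaved weeds germinating spontaneously. Test compounds applied as wettable powder to soil under flooded water. Herbicidal effect and rice phytotoxicity scored 0–5 at 25 days after application.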

The subject of data set [6] is carmine mite (Tetranychus telavius). Put plainly: Lethal effect on carmine mite, leaf dipping (Table 3). The settings on record: foliar, 48 h. In short, it runs like this: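 Kidney bean leaves (2-leaf stage) infested with adult mites dipped 1 min in aqueous wettable-powder solutions. Mortality counted microscopically after 48 h; LC50 derived from mortality.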
Data set [7] has as its system tobacco cut worm (Spondoptera litura). In words: Lethal effect on tobacco cut worm (Table 5). The settings on record: tobacco cutworm, larvae on chinese cabbage leaves, 48 h. Here is the method:
The present compounds of an emulsifiable concentrate type were applied to leaves of chinese cabbage in the form of an 1000 fold dilute solution. After air-drying, third to fourth instar larvae of tobacco cut worm were released and after 48 hours the death and alive were observed.

Data set [8] concerns rice stem borer (Chilo suppressalis). Put plainly: Lethal effect on rice stem borer (Table 6). The settings on record: 50 % emulsifiable concentrate, 1000 fold dilute solution, 4 days after application. The text has this:
Eggs just before hatch of the rice stem borer were applied in a ratio of 100/pot near the root of rice plants grown up into the tillering stage in an […] Wagner's pot. After eggs were hatched and the larvae entered into stems of rice plants, an 1000 fold dilute solution of each 50 % emulsifiable concentrates of the present compounds was applied by means of a turn table.

The next data set deals with nematode. In words: Effect on nematode (Table 7). The note with it: 500 p.p.m., 24 hours. Also noted: tested at 500 ppm. The procedure:
0.5 ml. of a nematode-containing aqueous solution separated from food according to Baermann's method was placed in a test tube with ground stopper containing 0.5 ml. of an aqueous dilute solution of each emulsifiable concentrates of the present compounds. The concentration of the active ingredient in the mixture was adjusted to 500 p.p.m. After 24 hours, the death and alive were observed microscopically to calculate the mortality.

For data set [9], the system named is barnyard grass (Echinochloa crus-galli). In words: Water application, herbicidal effect on barnyard grass (Table 2). Also noted: key: 0: not damaged; 5: completely killed. The settings on record: 25 days, score 0-5. The method, boiled down: as §2
The subject of data set [10] is broad-leaved weeds, e.g., monochoria, false pimpernel and toothcup. In words: Water application, herbicidal effect on broad-leaved weeds (Table 2). The note with it: 25 days, score 0-5. Also noted: key: 0: not damaged; 5: completely killed. In short, it runs like this:
as §2

Data set [11] has as its system carmine mite (Tetranychus telarius). Put plainly: Lethal effect on carmine mite, degree of damage on kidney beans (Table 4). More on the design: key: -: damage is hardly increased.; +: damage is slightly increased.; ++: damage is fairly increased.; +++: damage is heavily increased. The settings on record: 25% wettable powder, 200 fold dilute solution, another week after application. An excerpt: About 50 carmine mite adults were made parasitic on leaves of potted kidney beans at a 2-leaves stage which had elapsed 10 days after swing. After a week, the present compounds of a 25% wettable powder type were each applied in the form of a 200 fold dilute solution.

Broadly, the LC50 is the concentration that kills 50% of the test population. `CCOP(=O)(SCC(=O)N1CCCCC1C)SC(C)CC` (stereo not shown) [Compound 5]: the “Herbicidal effect, barnyard grass” value in data set [1] (10 g./a.), in data set [1] (20 g./a.) and in data set [1] (40 g./a.) was 5 throughout. Moreover, the “Herbicidal effect, large crabgrass” value in data set [2] (10 g./a.), in [2] (20 g./a.) and in data set [2] (40 g./a.) was 5 in each case. In addition, the “Herbicidal effect, radish” value in the data set on radish (10 g./a.), in the data set on radish (20 g./a.) and in the data set with radish (40 g./a.) was 0 each time. Further, the “Herbicidal effect, redroot pigweed” value in data set [3] (10 g./a.), in data set [3] (20 g./a.) and in [3] (40 g./a.) was 5 in each case. For the same molecule, the “Herbicidal effect, common purslane” value in data set [4] (10 g./a.), in data set [4] (20 g./a.) and in [4] (40 g./a.) was 5 throughout. Further, the “Herbicidal effect, common lambsquarter” value in [5] (10 g./a.), in [5] (20 g./a.) and in data set [5] (40 g./a.) was 5 throughout. Besides, the Phytotoxicity on rice in the data set with rice (10 g/a), in the data set with rice (20 g/a) and in the data set on rice (40 g/a) was 0 each time. Moreover, in data set [6], the LC50 worked out at 7.9 µg/mL (≈ 22.3 µM). In addition, the Mortality in data set [7] is on record as 70.0%; in data set [8] it was 88.9%; with nematode it was 100%. In addition, the “Herbicidal effects, barnyard grass” value in data set [9] (10 g/a), in data set [9] (20 g/a) and in [9] (40 g/a) was 5 in each case. Moreover, the “Herbicidal effects, broad-leaved weeds” value in data set [10] (10 g/a), in data set [10] (20 g/a) and in [10] (40 g/a) was 5 in each case.

As to `CCCSP(=O)(OCC)SCC(=O)N1CCCC(C)C1` (stereo not shown) [Compound 13], the “Herbicidal effect, barnyard grass” value in data set [1] (10 g./a.), in [1] (20 g./a.) and in data set [1] (40 g./a.) was 5 throughout. The “Herbicidal effect, large crabgrass” value in [2] (10 g./a.), in data set [2] (20 g./a.) and in data set [2] (40 g./a.) was 5 throughout. Also, the “Herbicidal effect, radish” value in the data set on radish (10 g./a.), in the data set on radish (20 g./a.) and with radish (40 g./a.) was 0 in each case. Moreover, the “Herbicidal effect, redroot pigweed” value was found to be 4 in data set [3] (10 g./a.), 5 in data set [3] (20 g./a.) and 5 in [3] (40 g./a.). Moreover, the “Herbicidal effect, common purslane” value worked out at 4 in data set [4] (10 g./a.), 5 in data set [4] (20 g./a.) and 5 in [4] (40 g./a.). The entries for the “Herbicidal effect, common lambsquarter” value in [5] (10 g./a.), in data set [5] (20 g./a.) and in data set [5] (40 g./a.) were 4, 5 and 5, respectively. The Phytotoxicity on rice in the data set with rice (10 g/a), with rice (20 g/a) and in the data set with rice (40 g/a) was 0 in each case. For the same molecule, in [7], the Mortality is reported as 73.3%. Moreover, the “Herbicidal effects, barnyard grass” value in [9] (10 g/a), in data set [9] (20 g/a) and in [9] (40 g/a) was 5 each time. For the same molecule, the “Herbicidal effects, broad-leaved weeds” value in data set [10] (10 g/a), in [10] (20 g/a) and in [10] (40 g/a) was 5 throughout.

On to `CCOP(=O)(SCC(=O)N1CCCCC1C)SCc1ccc(C(C)(C)C)cc1` (stereo not shown) [Compound 50], for which the “Herbicidal effect, barnyard grass” value in data set [1] (10 g./a.), in data set [1] (20 g./a.) and in [1] (40 g./a.) was 5 each time. Further, the “Herbicidal effect, large crabgrass” value in [2] (10 g./a.), in data set [2] (20 g./a.) and in data set [2] (40 g./a.) was 5 in each case. Moreover, the “Herbicidal effect, radish” value came to 0 with radish (10 g./a.), 1 in the data set on radish (20 g./a.) and 2 with radish (40 g./a.). In addition, the “Herbicidal effect, redroot pigweed” value in [3] (10 g./a.), in [3] (20 g./a.) and in data set [3] (40 g./a.) was 5 throughout. For the same molecule, the “Herbicidal effect, common purslane” value in data set [4] (10 g./a.), in [4] (20 g./a.) and in [4] (40 g./a.) was 5 in each case. Also, the “Herbicidal effect, common lambsquarter” value in data set [5] (10 g./a.), in data set [5] (20 g./a.) and in data set [5] (40 g./a.) was 5 throughout. The figures for the Phytotoxicity on rice in the data set with rice (10 g/a), with rice (20 g/a) and in the data set on rice (40 g/a) were 0, 0 and 1, respectively. Besides, the Mortality in data set [7] was determined as 81.2%; in the data set with nematode it was 100%. The “Herbicidal effects, barnyard grass” value in data set [9] (10 g/a), in data set [9] (20 g/a) and in data set [9] (40 g/a) was 5 throughout. The “Herbicidal effects, broad-leaved weeds” value in data set [10] (10 g/a), in data set [10] (20 g/a) and in [10] (40 g/a) was 5 in each case.

Take `CCOP(=O)(SCC(=O)N1CCCCC1CC)SCc1ccc(CC)cc1` (stereo not shown) [Compound 58]: the “Herbicidal effect, barnyard grass” value in [1] (10 g./a.) worked out at 4; in [1] (20 g./a.), 5; in [1] (40 g./a.), 5. Further, the “Herbicidal effect, large crabgrass” value in data set [2] (10 g./a.), in data set [2] (20 g./a.) and in data set [2] (40 g./a.) was 5 each time. For the same molecule, the “Herbicidal effect, radish” value with radish (10 g./a.), in the data set with radish (20 g./a.) and in the data set on radish (40 g./a.) was 0 each time. Further, the “Herbicidal effect, redroot pigweed” value in data set [3] (10 g./a.) was determined as 3; in data set [3] (20 g./a.), 4; in [3] (40 g./a.), 5. Further, the “Herbicidal effect, common purslane” value in data set [4] (10 g./a.) worked out at 3; in [4] (20 g./a.) it was 4; in data set [4] (40 g./a.) it was 5. In addition, the “Herbicidal effect, common lambsquarter” value in data set [5] (10 g./a.) is 3; in data set [5] (20 g./a.) it was 4; in data set [5] (40 g./a.), 4. Besides, the Phytotoxicity on rice with rice (10 g/a), in the data set with rice (20 g/a) and in the data set with rice (40 g/a) was 0 throughout. The same molecule came in with a Mortality in data set [7] of 72.0%. Moreover, the “Herbicidal effects, barnyard grass” value in [9] (10 g/a), in [9] (20 g/a) and in data set [9] (40 g/a) was 5 in each case. For the same molecule, the “Herbicidal effects, broad-leaved weeds” value in data set [10] (10 g/a), in [10] (20 g/a) and in [10] (40 g/a) was 5 in each case.

Take `CCOP(=O)(SCCc1ccc(Cl)cc1)SCC(=O)N1CCCCC1C` (stereo not shown) [Compound 60]: the Degree of damage entry in data set [11] is reported as “-”.

`CCOP(=O)(SCC(=O)N1CCCCC1C)SCc1ccc(Cl)c(Cl)c1` (stereo not shown) [Compound 61]: the Degree of damage result in [11] is listed as “-”.
